Reference: US20240245703A1, “TOPICAL APPLICATION OF AGENTS TO REDUCE SUN SENSITIVITY AND IMPROVE TOPICAL PHOTODYNAMIC THERAPY” (Wright State University, priority 2021, published 2024)

Assays:
human skin explants = experiment: PDT-induced MVP release in human skin explants ex vivo; format: cell-based; conditions: 100 μL of 5 mM added post-PDT, 4 h
Description: (§1) For the data shown in FIG. 14, HaCaT keratinocytes were treated with sham (no treatment), 0.1% ethanol vehicle control (VEH), 100 nM TPA, 100 nM CPAF, 1 mM 5-ALA for 4 hours, or 5-ALA followed by various fluences (2.5-20 J/cm^2) of blue light or blue light alone. Levels of MVPs released into supernatants were measured at 4 hours. […] For the data shown in FIG. 15, human skin explants were treated with sham, 100 μL vehicle (90% ethanol+10% DMSO) (VEH), 1 μM TPA, 1 µM CPAF, 1 mM 5-ALA for 4 hours, blue light or 5-ALA+blue light at 20 J/cm^2. After four hours, duplicate 6-mm punch biopsies were obtained, weighed, and MVPs were measured. The data are the mean±SE from 3-4 separate experiments conducted in duplicate. * Denotes statistically significant (P <0.05) changes from sham values.
(§2) Supernatants were collected at 4 hours and MVP measured. The data are the mean±SE MVP fold change from sham-treated values. For the data shown in FIG. 17, human skin explants were treated as in FIG. 15, with the exception that in some experiments 100 μL of 5 mM IMIP was added post-PDT. MVP were measured in duplicate 6-mm punch biopsies obtained 4 hours post-treatment.

HaCaT keratinocytes = experiment: PDT (5-ALA + blue light) MVP release in HaCaT keratinocytes; format: cell-based, human; parameters: PDT-induced MVP release: dose or concentration left out as unconfirmed; conditions: HaCaT keratinocytes, imipramine added immediately after PDT, supernatants 4 h
Description: PDT results in acute cellular destruction and inflammation and photosensitivity, as well as delayed immunosuppression. […] Thus, it was of further interest whether experimental PDT of HaCaT keratinocytes generated MVP in vitro. To that end, HaCaT cells were pretreated with 5-ALA alone, or blue light alone, or a 4 hour incubation of 5-ALA in the dark followed by various fluences of blue light, and MVP were measured in the supernatants at 4 hours post blue light. 100 nM CPAF and TPA were used as positive controls for MVP release.
as §1, §2

aSMase = conditions: cited from earlier work
UVB-induced MVP release = experiment: MVP release after localized UVB irradiation of volar forearm of human subjects; format: in vivo; conditions: human photosensitive vs normal subjects, 1 KJ/m^2 UVB, 4% imipramine immediately after, biopsies 4 h
Description: FIG. 22A compares normal subjects to subjects who have active photosensitivity disorders as denoted by positive screening. […] The individual data points are shown in FIG. 22A with the mean±SE of the groups for the UVB+vehicle for the normal and photosensitive subjects.

UVB-induced erythema = experiment: UVB-induced skin erythema (Mexameter) in wild-type and XPA KO mice; format: in vivo; conditions: WT and XPA KO mice, 5 kJ/m^2 UVB, 100 μL 500 μM topical immediately after, 4 h; effect most noted in XPA KO
Description: Erythema was measured by a Mexameter® device (Courage+Khazaka electronic GmbH, Cologne, Germany) before treatment and after 4 hours of treatment. […] UVB-induced skin inflammation involves many cytokines including interleukin-6 (IL-6) and tumor necrosis factor-alpha (TNFα).
Groups of 6-8 mice underwent erythema measurements with a Mexameter® device before irradiation with various fluences (1.0, 2.5, and 5.0 kJ/m^2) of UVB or no UVB (sham), and four hours later erythema was measured to determine the cutaneous erythema and cytokine responses of UVB irradiation on wild-type vs XPA KO mice. Similarly, triplicate skin biopsies were obtained and mRNA isolated, and quantitative reverse transcription polymerase chain reaction (qRT-PCR) used to quantify mRNA levels of cytokines TNF ? and IL-6. The housekeeping gene GAPDH was used as control. […] The data is shown as the mean±S.E. of fold change in baseline erythema levels. * Denotes statistically significant (P<0.05) differences between UVB- and sham-treated mice. #Denotes statistically significant (P<0.05) differences between XPA KO and wild-type erythema responses.
The data is shown as the mean±S.E. of fold change in baseline erythema levels. * Denotes statistically significant (P<0.05) differences between UVB- and sham-treated mice

[1] = hairless mice, effect of propylene glycol; cited from earlier work
TNFα and IL-6 mRNA = experiment: UVB-induced cytokine mRNA (qRT-PCR) in mouse skin biopsies; format: in vivo; conditions: mice, topical post-UVB, skin biopsies 4 h
PDT-induced MVP release = PDT-induced MVP release in skin and plasma of mice; format: in vivo; conditions: wild-type mice, PDT 20 J/cm^2 blue light, 100 μl of 5 mM topical immediately after, 4 h
Description: Next, the role of PAF and aSMase in PDT-induced MVP release was assessed. […] Next, the ability of topical PDT to generate MVP in vivo in mice, and the role of aSMase in this process, was determined. […] Two approaches were used to determine if PDT-induced MVP involved aSMase.
The role of aSMase in PDT-mediated MVP release was evaluated in a murine system. For the data shown in FIG. 18, wild-type mice were treated with either sham, 100 μl of 5 mM IMIP, or 90% polyethylene glycol: 10% DMSO vehicle, or 1 μM TPA (as a positive control for MVP release), or PDT using 20 J/cm^2 blue light. Immediately following PDT, the treated areas were given vehicle or imipramine. At 4 hours post-treatment, the mice were euthanized and MVP were measured from duplicate 6-mm punch biopsies and plasma. The data are mean±SD fold increase in MVP normalized to tissue weight/plasma volume. * Denotes statistically significant (P<0.05) changes from sham; #statistically significant (P<0.05) changes from comparator denoted by line by two-way ANOVA; NS not statistically significant.
To confirm the role of aSMase in PDT-induced MVP generation, PDT effects were evaluated in the absence of aSMase was evaluated in a murine system. For the data shown in FIG. 19, wild-type or aSMase-deficient (Smpd1−/−) mice underwent sham or PDT using 20 J/cm^2 blue light. At 4 hours post-treatment, the mice were euthanized and MVP were measured from duplicate 6-mm punch biopsies and plasma. The data are mean±SD fold increase in MVP normalized to tissue weight/plasma volume. * Denotes statistically significant (P<0.05) changes from sham; NS not statistically significant.

Compound: CN(C)CCCN1c2ccccc2CCc2ccccc21 [Imipramine]
- PDT-induced MVP release (human skin explants): blocked PDT-induced MVP release
- PDT-induced MVP release (HaCaT keratinocytes): blocked PDT-induced MVP release
- Residual ASM Activity (aSMase; 10 micromolar, PC12 cells, incubation time 0.5 h, % of corresponding control values): 32.6%
- residual aSMase activity after treatment (aSMase; from Kornhuber et al. 2008): 30.6%
- UVB-induced MVP release in forearm skin (UVB-induced MVP release): blocks the increased MVP release selectively in the photosensitive subjects
- UVB-induced erythema response (UVB-induced erythema): blocked the erythema responses
- absorption with propylene glycol [1]: enhances absorption
- UVB-induced IL-6 mRNA (TNFα and IL-6 mRNA): blocks IL-6 mRNA responses
- UVB-induced TNFα mRNA (TNFα and IL-6 mRNA): blocks TNFα mRNA responses
- PDT-induced MVP release in skin and plasma (PDT-induced MVP release): blocked MVP release
